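Assay format: 96-well plates, 48-hour exposure. GI50 marks 50% less growth. Definition used: TGI = concentration required for complete inhibition of growth.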
Tests used:
Assay in all cases: inhibition of tumour cell growth, NCI panel, 48 h
SF-268 CNS = system: SF-268 CNS
DU-145 prostate = system: DU-145 prostate
MDA-MB-435 = system: MDA-MB-435
RPMI-8226 leukemia = system: RPMI-8226 leukemia
MCF7 breast = system: MCF7 breast
SNB-19 CNS = system: SNB-19 CNS
A549 NSCLC = system: A549 NSCLC
U251 CNS = system: U251 CNS
MDA-MB-231 breast = system: MDA-MB-231 breast
CAKI-1 renal = system: CAKI-1 renal
OVCAR-3 ovarian = system: OVCAR-3 ovarian
COLO 205 colon = system: COLO 205 colon
HT29 colon = system: HT29 colon
UO-31 renal = system: UO-31 renal
HCT-116 colon = system: HCT-116 colon
HOP-62 NSCLC = system: HOP-62 NSCLC
SF-295 CNS = system: SF-295 CNS
HCC-2998 colon = system: HCC-2998 colon
SNB-75 CNS = system: SNB-75 CNS
IGROV1 ovarian = system: IGROV1 ovarian
HCT-15 colon = system: HCT-15 colon
T-47D breast = system: T-47D breast
HS 578T breast = system: HS 578T breast
M14 melanoma = system: M14 melanoma
NCI-H460 lung = system: NCI-H460 lung
NCI/ADR-RES ovarian = system: NCI/ADR-RES ovarian
HL-60(TB) leukemia = system: HL-60(TB) leukemia
SK-OV-3 ovarian = system: SK-OV-3 ovarian
MALME-3M melanoma = system: MALME-3M melanoma

SMILES: CCN(CC)CCOc1ccc(C(=C(C)c2ccc(OC)cc2)c2ccc(OCCN(CC)CC)cc2)cc1
- GI50 (SF-268 CNS): 1210 nM
- TGI (SF-268 CNS): 3430 nM
- GI50 (DU-145 prostate): 2090 nM
- TGI (DU-145 prostate): 8170 nM
- GI50 (MDA-MB-435): 903 nM
- TGI (MDA-MB-435): 1760 nM
- GI50 (RPMI-8226 leukemia): 1140 nM
- TGI (RPMI-8226 leukemia): 3240 nM
- GI50 (MCF7 breast): 275 nM
- TGI (MCF7 breast): 1100 nM
- GI50 (SNB-19 CNS): 1610 nM
- TGI (SNB-19 CNS): 5390 nM
- GI50 (A549 NSCLC): 1520 nM
- TGI (A549 NSCLC): 6020 nM
- GI50 (U251 CNS): 876 nM
- TGI (U251 CNS): 2000 nM
- GI50 (MDA-MB-231 breast): 973 nM
- TGI (MDA-MB-231 breast): 2080 nM
- GI50 (CAKI-1 renal): 978 nM
- TGI (CAKI-1 renal): 2300 nM
- GI50 (OVCAR-3 ovarian): 1240 nM
- TGI (OVCAR-3 ovarian): 3620 nM
- GI50 (COLO 205 colon): 1060 nM
- TGI (COLO 205 colon): 2350 nM
- GI50 (HT29 colon): 665 nM
- TGI (HT29 colon): 2030 nM
- GI50 (UO-31 renal): 789 nM
- TGI (UO-31 renal): 1500 nM
- GI50 (HCT-116 colon): 614 nM
- TGI (HCT-116 colon): 1600 nM
- GI50 (HOP-62 NSCLC): 1440 nM
- TGI (HOP-62 NSCLC): 4760 nM
- GI50 (SF-295 CNS): 883 nM
- TGI (SF-295 CNS): 1750 nM
- GI50 (HCC-2998 colon): 1050 nM
- TGI (HCC-2998 colon): 2390 nM
- GI50 (SNB-75 CNS): 7590 nM
- TGI (SNB-75 CNS): 17500 nM
- GI50 (IGROV1 ovarian): 1290 nM
- TGI (IGROV1 ovarian): 3100 nM
- GI50 (HCT-15 colon): 731 nM
- TGI (HCT-15 colon): 1870 nM
- GI50 (T-47D breast): 747 nM
- TGI (T-47D breast): 2070 nM
- GI50 (HS 578T breast): 1090 nM
- TGI (HS 578T breast): 3150 nM
- GI50 (M14 melanoma): 936 nM
- TGI (M14 melanoma): 1890 nM
- GI50 (NCI-H460 lung): 1440 nM
- TGI (NCI-H460 lung): 4470 nM
- GI50 (NCI/ADR-RES ovarian): 1700 nM
- TGI (NCI/ADR-RES ovarian): 6500 nM
- GI50 (HL-60(TB) leukemia): 1270 nM
- TGI (HL-60(TB) leukemia): 2860 nM
- GI50 (SK-OV-3 ovarian): 1270 nM
- TGI (SK-OV-3 ovarian): 3170 nM
- GI50 (MALME-3M melanoma): 832 nM
- TGI (MALME-3M melanoma): 1640 nM

Source: PubChem BioAssay (NCI)
